According to patent publication US7786141B2 (Vertex Pharmaceuticals Incorporated, priority 2004, dated 2010):

Tests used:
M4 muscarinic receptor = biological target: T1, M4 muscarinic receptor (Homo sapiens, UniProt P08173); test: Functional mobilization of intracellular calcium (FLIPR) in M4-CHO cells; format: cell-based; conditions: M4 receptor, calcium mobilization; for Emax: read-out: M4 Efficacy
T1 construct: expressed in transfected cells; host or cells: CHO (M4-CHO)
T1 sequence (P08173 1-479): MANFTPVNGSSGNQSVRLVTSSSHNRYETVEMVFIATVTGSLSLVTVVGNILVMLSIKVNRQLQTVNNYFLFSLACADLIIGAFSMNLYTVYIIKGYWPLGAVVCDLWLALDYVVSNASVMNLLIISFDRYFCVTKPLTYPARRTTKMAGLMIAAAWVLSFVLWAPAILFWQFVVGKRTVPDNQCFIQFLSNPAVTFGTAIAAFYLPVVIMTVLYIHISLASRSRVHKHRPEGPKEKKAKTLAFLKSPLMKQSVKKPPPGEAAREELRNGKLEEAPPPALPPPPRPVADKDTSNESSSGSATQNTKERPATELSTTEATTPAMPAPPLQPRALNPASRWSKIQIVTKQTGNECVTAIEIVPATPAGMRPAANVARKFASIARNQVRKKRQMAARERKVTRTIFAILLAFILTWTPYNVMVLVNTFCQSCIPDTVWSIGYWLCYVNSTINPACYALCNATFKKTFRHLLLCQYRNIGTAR
Summary of the method: (§1)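 Measured via Fluo-3 fluorescence on a FLIPR, CHO cells with either muscarinic subtype received compound in 0.5% DMSO. Antagonism was assessed after 15 min pre-incubation followed by carbachol at each subtype's EC80; agonism from compound addition alone.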

M1 muscarinic receptor = biological target: T2, M1 muscarinic receptor (Homo sapiens, UniProt P11229); test: Functional mobilization of intracellular calcium (FLIPR) in M1-CHO cells; format: cell-based; conditions: M1 receptor, calcium mobilization; for Emax: read-out: M1 Efficacy
T2 construct: expressed in transfected cells; host or cells: CHO (M1-CHO)
T2 sequence (P11229 1-460): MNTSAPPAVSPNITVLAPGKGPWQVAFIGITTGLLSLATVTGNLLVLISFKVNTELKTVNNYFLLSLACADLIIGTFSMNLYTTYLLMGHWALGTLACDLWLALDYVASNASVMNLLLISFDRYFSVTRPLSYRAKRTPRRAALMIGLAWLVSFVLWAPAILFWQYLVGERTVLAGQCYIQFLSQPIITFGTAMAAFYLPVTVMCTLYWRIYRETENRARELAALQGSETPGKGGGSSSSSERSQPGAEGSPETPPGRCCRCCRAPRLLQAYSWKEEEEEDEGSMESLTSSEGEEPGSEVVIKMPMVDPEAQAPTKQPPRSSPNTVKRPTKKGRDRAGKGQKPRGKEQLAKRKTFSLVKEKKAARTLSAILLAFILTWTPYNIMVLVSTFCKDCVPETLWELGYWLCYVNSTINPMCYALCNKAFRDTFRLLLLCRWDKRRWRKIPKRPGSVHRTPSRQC
Summary of the method: as §1

Row | Structure (SMILES) | M4 Activity (M4 muscarinic receptor) | Emax (M4 muscarinic receptor) | M1 Activity (M1 muscarinic receptor) | Emax (M1 muscarinic receptor) | M4 Efficacy (M4 muscarinic receptor) | M1 Efficacy (M1 muscarinic receptor)
1 | C#CCOC(=O)N1CCC(N2CCC3(CC2)CN(C(C)=O)c2ccc(C)cc23)CC1 [compound 81] | x (activity was measured to be greater than 1.0 μM) | < 65% | xx (activity was measured to be between 0.1 μM and 1.0 μM) | < 65% | – | –
2 | CC(=O)N1CC2(CCN(CC3CCN(C(=O)O[C@@H]4CCOC4)CC3)CC2)c2cc(F)ccc21 [compound 82] | xx (activity was measured to be between 0.1 μM and 1.0 μM) | – | xxx (activity was measured to be less than 0.1 μM) | – | xx (efficacy was calculated to be between 85% and 65%) | xx (efficacy was calculated to be between 85% and 65%)
3 | CCOC(=O)N1CCC(N2CCC3(CC2)CN(C(C)=O)c2ccc(-c4cccc(F)c4)cc23)CC1 [compound 84] | xx (activity was measured to be between 0.1 μM and 1.0 μM) | 65 to 85% | xxx (activity was measured to be less than 0.1 μM) | 65 to 85% | – | –
4 | Clc1ccc2c(c1)C1(CCN(C3CC4CCC(C4)C3)CC1)CN2 (centres unmarked) [compound 85] | xx (activity was measured to be between 0.1 μM and 1.0 μM) | 65 to 85% | xxx (activity was measured to be less than 0.1 μM) | 65 to 85% | – | –
5 | CCON=C1CCC(N2CCC3(CC2)CN(C(C)=O)c2ccc(F)cc23)CC1 (centres unmarked) [compound 86] | x (activity was measured to be greater than 1.0 μM) | < 65% | xxx (activity was measured to be less than 0.1 μM) | 65 to 85% | – | –
6 | O=C(C1CC1)N1CC2(CCN(C3CC4CCC(C3)N4C(=O)O[C@@H]3CCOC3)CC2)c2cc(F)ccc21 (some centres unmarked) [compound 87] | x (activity was measured to be greater than 1.0 μM) | < 65% | xxx (activity was measured to be less than 0.1 μM) | 65 to 85% | – | –
7 | CCOC(=O)N1C2CCC1CC(N1CCC3(CC1)CN(C(=O)c1ccno1)c1ccc(F)cc13)C2 (centres unmarked) [compound 88] | xx (activity was measured to be between 0.1 μM and 1.0 μM) | < 65% | xxx (activity was measured to be less than 0.1 μM) | 65 to 85% | – | –
8 | CCOC(=O)N1C2CCC1CC(N1CCC3(CC1)CN(C(=O)OCCOC)c1ccc(F)cc13)C2 (centres unmarked) [compound 90] | x (activity was measured to be greater than 1.0 μM) | < 65% | xx (activity was measured to be between 0.1 μM and 1.0 μM) | 65 to 85% | – | –
9 | CCCOC(=O)N1CCC(N2CCC3(CC2)CN(C(=O)N(C)C)c2ccc(F)cc23)CC1 [compound 91] | xx (activity was measured to be between 0.1 μM and 1.0 μM) | < 65% | xxx (activity was measured to be less than 0.1 μM) | 65 to 85% | – | –
10 | CCOC(=O)N1CCC(N2CCC3(CC2)CN(C(C)=O)c2ccc(C)cc23)CC1 [compound 92] | xx (activity was measured to be between 0.1 μM and 1.0 μM) | < 65% | xxx (activity was measured to be less than 0.1 μM) | 65 to 85% | – | –
11 | O=C(O[C@@H]1CCOC1)N1CC2(CCN(C3CC4CCC(C3)N4C(=O)O[C@H]3CCOC3)CC2)c2cc(F)ccc21 (some centres unmarked) [compound 93] | xx (activity was measured to be between 0.1 μM and 1.0 μM) | – | xx (activity was measured to be between 0.1 μM and 1.0 μM) | – | x (efficacy was calculated to be less than 65%) | x (efficacy was calculated to be less than 65%)
12 | CC(=O)N1CC2(CCN(C3CC4CCC(C3)N4C(=O)OC(C)C)CC2)c2cc(F)ccc21 (centres unmarked) [compound 94] | xx (activity was measured to be between 0.1 μM and 1.0 μM) | < 65% | xxx (activity was measured to be less than 0.1 μM) | < 65% | – | –
13 | COCCOC(=O)N1C2CCC1CC(N1CCC3(CCc4ccccc43)CC1)C2 (centres unmarked) [compound 95] | xx (activity was measured to be between 0.1 μM and 1.0 μM) | < 65% | xxx (activity was measured to be less than 0.1 μM) | 65 to 85% | – | –
14 | COC(=O)N1CC2(CCN(C3CC4CCC(C3)N4C(=O)O[C@H]3CCOC3)CC2)c2cc(F)ccc21 (some centres unmarked) [compound 96] | x (activity was measured to be greater than 1.0 μM) | < 65% | xx (activity was measured to be between 0.1 μM and 1.0 μM) | 65 to 85% | – | –
15 | COC(=O)N1CC2(CCN(C3CC4CCC(C3)N4C(=O)OC(C)C)CC2)c2cc(F)ccc21 (centres unmarked) [compound 97] | x (activity was measured to be greater than 1.0 μM) | < 65% | xxx (activity was measured to be less than 0.1 μM) | 65 to 85% | – | –
16 | CCCOC(=O)N1CCC(CN2CCC3(CC2)CN(C(C)=O)c2ccc(F)cc23)CC1 [compound 98] | xx (activity was measured to be between 0.1 μM and 1.0 μM) | < 65% | xxx (activity was measured to be less than 0.1 μM) | 65 to 85% | – | –
17 | CCOC(=O)N1C2CCC1CC(N1CCC3(CC1)COc1ccc(Cl)cc13)C2 (centres unmarked) [compound 99] | x (activity was measured to be greater than 1.0 μM) | < 65% | xxx (activity was measured to be less than 0.1 μM) | < 65% | – | –
18 | COc1ccc(OC(=O)N2C3CCC2CC(N2CCC4(CC2)COc2ccc(F)cc24)C3)cc1 (centres unmarked) [compound 100] | xx (activity was measured to be between 0.1 μM and 1.0 μM) | 65 to 85% | xxx (activity was measured to be less than 0.1 μM) | 65 to 85% | – | –
19 | CC#CCOC(=O)N1CCC(N2CCC3(CC2)CN(C(C)=O)c2ccc(F)cc23)CC1 [compound 102] | xx (activity was measured to be between 0.1 μM and 1.0 μM) | 65 to 85% | xxx (activity was measured to be less than 0.1 μM) | 65 to 85% | – | –
20 | CCOC(=O)N1C2CCC1CC(N1CCC3(CC1)CN(S(C)(=O)=O)c1ccc(F)cc13)C2 (centres unmarked) [compound 103] | xx (activity was measured to be between 0.1 μM and 1.0 μM) | < 65% | xxx (activity was measured to be less than 0.1 μM) | 65 to 85% | – | –
21 | O=C1CC2(CCN(C[C@H]3C[C@H]4C=C[C@H]3C4)CC2)c2ccccc21 [compound 104] | x (activity was measured to be greater than 1.0 μM) | < 65% | xxx (activity was measured to be less than 0.1 μM) | 65 to 85% | – | –
22 | CCOC(=O)N1CCC(N2CCC3(CC2)CN(C(C)=O)c2ccc(-c4ccncc4)cc23)CC1 [compound 105] | x (activity was measured to be greater than 1.0 μM) | < 65% | xx (activity was measured to be between 0.1 μM and 1.0 μM) | < 65% | – | –
23 | COCCOC(=O)N1C2CCC1CC(N1CCC3(CC1)CN(C(=O)OC1CCC1)c1ccc(F)cc13)C2 (centres unmarked) [compound 106] | xx (activity was measured to be between 0.1 μM and 1.0 μM) | < 65% | xxx (activity was measured to be less than 0.1 μM) | 65 to 85% | – | –
